From ChEMBL document CHEMBL4251603, “Structure-activity studies on N-Substituted tranylcypromine derivatives lead to selective inhibitors of lysine specific demethylase 1 (LSD1) and potent inducers of leukemic cell differentiation” (Eur J Med Chem, 2018)
Blank lines part the entries; values can stand above or below the molecule they belong to. Activity calls are given as the source filed them. The rule behind the calls is not given here.

Key:
MAO-A [1] = molecular target: T1, MAO-A (Homo sapiens, UniProt P21397); assay: Inhibition of MAO-A (unknown origin) at 1 uM using beetle luciferin derived luminogenic substrate preincubated for 15 mins followed by substrate addition measured after 60 mins by MAO-Glo assay relative to control; details: MAO-A enzyme (unknown origin), probe beetle luciferin derived luminogenic substrate
T1 sequence (P21397 whole entry): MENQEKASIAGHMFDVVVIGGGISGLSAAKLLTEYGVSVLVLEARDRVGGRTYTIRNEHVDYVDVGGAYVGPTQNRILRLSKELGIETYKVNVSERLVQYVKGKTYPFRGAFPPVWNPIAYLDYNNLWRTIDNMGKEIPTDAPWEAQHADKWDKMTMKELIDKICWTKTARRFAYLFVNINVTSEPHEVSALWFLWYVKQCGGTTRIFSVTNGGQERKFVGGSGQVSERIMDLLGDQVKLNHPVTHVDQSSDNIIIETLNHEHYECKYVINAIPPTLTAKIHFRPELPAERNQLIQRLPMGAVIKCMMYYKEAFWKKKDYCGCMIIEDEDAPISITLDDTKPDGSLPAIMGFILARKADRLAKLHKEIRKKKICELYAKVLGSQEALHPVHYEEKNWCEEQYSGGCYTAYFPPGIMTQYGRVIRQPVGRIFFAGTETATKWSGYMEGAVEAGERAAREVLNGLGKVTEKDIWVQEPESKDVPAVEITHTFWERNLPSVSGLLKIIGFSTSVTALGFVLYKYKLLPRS

MAO-B [2] = molecular target: T2, MAO-B (Homo sapiens, UniProt P27338); assay: in vitro; details: MAO-B enzyme (unknown origin), probe beetle luciferin derived luminogenic substrate
T2 sequence (P27338 whole entry): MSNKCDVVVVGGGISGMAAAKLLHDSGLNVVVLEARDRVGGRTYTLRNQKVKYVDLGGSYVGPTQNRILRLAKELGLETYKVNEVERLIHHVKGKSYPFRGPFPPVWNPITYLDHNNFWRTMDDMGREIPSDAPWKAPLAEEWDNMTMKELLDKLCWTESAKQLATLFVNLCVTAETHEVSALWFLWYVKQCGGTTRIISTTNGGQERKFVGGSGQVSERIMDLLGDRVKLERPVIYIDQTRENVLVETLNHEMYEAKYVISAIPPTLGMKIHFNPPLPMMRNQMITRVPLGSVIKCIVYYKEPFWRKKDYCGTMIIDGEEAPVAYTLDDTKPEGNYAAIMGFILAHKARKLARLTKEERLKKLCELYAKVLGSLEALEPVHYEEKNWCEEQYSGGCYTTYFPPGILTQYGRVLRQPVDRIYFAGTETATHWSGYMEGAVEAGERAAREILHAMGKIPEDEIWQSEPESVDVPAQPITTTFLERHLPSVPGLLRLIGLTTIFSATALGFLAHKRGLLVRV

MAO-A [3] = molecular target: T1, MAO-A; assay: in vitro; details: MAO-A enzyme (unknown origin), probe beetle luciferin derived luminogenic substrate
MAO-B [4] = molecular target: T2, MAO-B; assay: (§1) Inhibition of MAO-B (unknown origin) at 10 uM using beetle luciferin derived luminogenic substrate preincubated for 15 mins followed by substrate addition measured after 60 mins by MAO-Glo assay relative to control; details: MAO-B enzyme (unknown origin), probe beetle luciferin derived luminogenic substrate
[5] = molecular target: T3, Amine oxidase [flavin-containing] B (Homo sapiens, UniProt P27338); assay: as §1; details: 1 h, 10 µM
T3 sequence (P27338 whole entry): T2 sequence (P27338 whole entry)

[6] = molecular target: T4, Amine oxidase [flavin-containing] A (Homo sapiens, UniProt P21397)
T4 sequence (P21397 whole entry): T1 sequence (P21397 whole entry)

THP-1 [7] = assay: Inhibition of colony formation in human THP1 cells at 0.5 uM after […] by light microscopic method relative to control; type: functional
[8] = molecular target: Lysine-specific histone demethylase 1A (Mus musculus) (UniProt Q6ZQ88); assay: Inhibition of LSD1 in mouse Hoxa9/Meis1 transformed progenitor cells assessed as induction of granulocytic differentiation at 50 to 100 nM up to 96 hrs by pappenheim staining based assay
[9] = molecular target: T3, Amine oxidase [flavin-containing] B; assay: Inhibition of MAO-B (unknown origin) using beetle luciferin derived luminogenic substrate preincubated for 15 mins followed by substrate addition measured after 60 mins by MAO-Glo assay
[10] = molecular target: Lysine-specific histone demethylase 1A (Mus musculus) (UniProt Q6ZQ88); assay: Inhibition of LSD1 in mouse Hoxa9/Meis1 transformed progenitor cells assessed as reduction in c-Kit positive cells at 100 nM after 96 hrs by flow cytometry; type: cell-based
[11] = molecular target: T5, Lysine-specific histone demethylase 1A (Homo sapiens, UniProt O60341); details: 100 uM
THP-1 [12] = assay: Inhibition of colony formation in human THP1 cells at 0.5 to 50 uM after […] by light microscopic method; type: functional, cell-based
[13] = molecular target: T5, Lysine-specific histone demethylase 1A; details: 10 uM
[14] = molecular target: T5, Lysine-specific histone demethylase 1A
[15] = molecular target: T5, Lysine-specific histone demethylase 1A; remark: listed apart in the source

inhibition at 1 h, 1 µM (MAO-A [1]): 93%
inhibition at 1 h, 1 µM (MAO-B [2]): 82%
SMILES: c1ccc(-c2ccc(CN[C@H]3C[C@@H]3c3ccccc3)cc2)cc1 (relative stereo)

SMILES: Fc1cccc(CN[C@H]2C[C@@H]2c2ccccc2)c1 (relative stereo)
inhibition at 1 h, 10 µM (MAO-A [3]): 69%
inhibition at 1 h, 10 µM (MAO-B [4]): 20%

SMILES: CC(C)(C)c1ccc(CN[C@H]2C[C@@H]2c2ccccc2)cc1 (relative stereo)
inhibition at 1 h, 1 µM (MAO-A [1]): 22%
inhibition at 1 h, 1 µM (MAO-B [2]): 27%

SMILES: COc1ccc(CN[C@H]2C[C@@H]2c2ccccc2)cc1OC (relative stereo)
inhibition at 1 h, 10 µM (MAO-A [3]): 69%
inhibition (INH) [5]: Not Active

inhibition at 1 h, 1 µM (MAO-A [1]): 94%
inhibition at 1 h, 1 µM (MAO-B [2]): 79%
SMILES: O=[N+]([O-])c1ccc(N[C@H]2C[C@@H]2c2ccccc2)s1 (relative stereo)

SMILES: Clc1ccccc1CN[C@H]1C[C@@H]1c1ccccc1 (relative stereo)
inhibition at 1 h, 10 µM (MAO-A [3]): 62%
inhibition at 1 h, 10 µM (MAO-B [4]): 21%

inhibition (INH) [5]: Not Active
IC50 [6]: 161 nM
SMILES: c1ccc(-c2cccc(CN[C@H]3C[C@@H]3c3ccccc3)c2)cc1 (relative stereo)

SMILES: COc1ccc(CN[C@H]2C[C@@H]2c2ccccc2)cc1 (relative stereo)
inhibition at 1 h, 1 µM (MAO-A [1]): 30%

SMILES: Cc1ccc(CN[C@H]2C[C@@H]2c2ccccc2)cc1Cl (relative stereo)
inhibition at 1 h, 1 µM (MAO-A [1]): 69%

inhibition at 1 h, 1 µM (MAO-A [1]): 93%
inhibition at 1 h, 1 µM (MAO-B [2]): 52%
SMILES: c1ccc(COc2ccc(CN[C@H]3C[C@@H]3c3ccccc3)cc2)cc1 (relative stereo)

inhibition at 1 h, 10 µM (MAO-A [3]): 54%
inhibition at 1 h, 10 µM (MAO-B [4]): 14%
SMILES: Cn1c(CN[C@H]2C[C@@H]2c2ccccc2)cc2ccccc21 (relative stereo)

SMILES: c1ccc(CN[C@H]2C[C@@H]2c2ccccc2)cc1 (relative stereo)
inhibition at 1 h, 10 µM (MAO-B [4]): 33%
IC50 [6]: 5700 nM

SMILES: O=[N+]([O-])c1ccccc1CN[C@H]1C[C@@H]1c1ccccc1 (relative stereo)
inhibition at 1 h, 1 µM (MAO-A [1]): 18%
inhibition at 1 h, 1 µM (MAO-B [2]): 15%

SMILES: COc1cccc(CN[C@H]2C[C@@H]2c2ccccc2)c1 (relative stereo)
inhibition at 1 h, 10 µM (MAO-A [3]): 79%
inhibition (INH) [5]: Not Active

SMILES: O=[N+]([O-])c1cc(CN[C@H]2C[C@@H]2c2ccccc2)ccc1Cl (relative stereo)
inhibition at 1 h, 10 µM (MAO-A [3]): 100%
inhibition at 1 h, 10 µM (MAO-B [4]): 13%

SMILES: O=[N+]([O-])c1cccc(CN[C@H]2C[C@@H]2c2ccccc2)c1 (relative stereo)
inhibition at 0.5 µM (THP-1 [7]): 80%
inhibition [8]: Active
IC50 [9]: 1400 nM
inhibition [10]: Active
IC50 [6]: 488 nM

inhibition at 1 h, 1 µM (MAO-A [1]): 60%
inhibition at 1 h, 1 µM (MAO-B [2]): 23%
SMILES: c1ccc(COc2cccc(CN[C@H]3C[C@@H]3c3ccccc3)c2)cc1 (relative stereo)

SMILES: C[C@@H]1[C@@H](N)[C@H]1c1ccccc1.Cl (relative stereo)
inhibition [11]: inactive
inhibition (INH) [5]: Not Active

inhibition at 1 h, 1 µM (MAO-A [1]): 27%
SMILES: O=[N+]([O-])c1ccc(N[C@H]2C[C@@H]2c2ccccc2)o1 (relative stereo)

inhibition at 1 h, 10 µM (MAO-A [3]): 48%
inhibition at 1 h, 10 µM (MAO-B [4]): 17%
SMILES: CC(=O)Nc1ccc(CN[C@H]2C[C@@H]2c2ccccc2)cc1 (relative stereo)

IC50 [9]: 10500 nM
inhibition [13]: inactive
IC50 [6]: 310 nM
Tm [14]: 47.9 °C
SMILES: C[C@@H]1[C@H](NCc2ccc(Cl)cc2)[C@H]1c1ccccc1 (relative stereo)
inhibition (THP-1 [12]): inactive

inhibition at 1 h, 10 µM (MAO-A [3]): 32%
inhibition (INH) [5]: Not Active
IC50 [15]: Not Active
SMILES: COc1ccccc1CN[C@H]1[C@@H](C)[C@@H]1c1ccccc1 (relative stereo)

SMILES: Fc1ccc(CN[C@H]2C[C@@H]2c2ccccc2)cc1 (relative stereo)
inhibition at 1 h, 1 µM (MAO-A [1]): 27%
